According to US20230372382A1, “USE OF ADENOSINE DIPHOSPHATE RIBOSE FOR ADJUVANT THERAPY WITH RADIATION AND/OR ANTI-CANCER TREATMENT” (PearlsInMires Co., Ltd., priority 2021, published 2023):
Where two headings read alike, the source gives them in different places.

Experiments:
[1] = tested on: AsPC-1 cells; experiment: Cancer cell death verification (MTT cell viability); format: cell-based
Experimental: 3×10^3 Brain cancer (U-87MG), lung cancer (H1975), pancreatic cancer (Aspc-1), liver cancer (Hep G2), breast cancer (MDA-MB-231), colon cancer (HCT116), kidney cancer (Caki-1), gastric cancer (SNU-1) and ovarian cancer (OVCAR-3) cells were cultured in a 96-well plate under conditions of 37° C. and 5% CO2 for 24 hours, and then each cancer cell was treated with ADP-ribose at each concentration. After culturing for 24 hours under conditions of 37° C. and 5% CO2 again, 10 μl of 3-(4,5-dimethylthiazol-2-yl)-2,5-diphenyltetrazolium bromide reagent was added to each well and reacted for 1 hour. After the reaction was completed, the reagent was removed, 200 μl of dimethyl sulfoxide was added to each well, and the absorbance was measured to determine the concentration of half-lethality and maximum lethality compared to untreated cells.
3×10^3 AsPC-1 cells were cultured in a 96-well plate for 24 hours under conditions of 37° C. and 5% CO2, treated with ADP-ribose at concentrations of 0.125, 0.25, 0.5, 1, 2, 4, 8, 16, and 32 μM, respectively, and cultured again for 24 hours under conditions of 37° C. and 5% CO2. Then, 10 μl of 3-(4,5-dimethylthiazol-2-yl)-2,5-diphenyltetrazolium bromide reagent was added to each well and reacted for 1 hour. After the reaction was completed, the reagent was removed, 200 μl of dimethyl sulfoxide was added to each well, and the absorbance was measured to confirm cell viability.

[2] = tested on: MDA-MB-231 cells; experiment: Cell death by combination treatment of ADP-ribose and radiation (MTT); format: cell-based; conditions: MDA-MB-231, 16 μM ADP-ribose in combination with 2 Gy radiation, 24 hours, P<0.001; 2 Gy alone about 90.6%
Experimental: 3×10^3 Brain cancer (U-87MG), lung cancer (H1975), pancreatic cancer (Aspc-1), liver cancer (Hep G2), breast cancer (MDA-MB-231), colon cancer (HCT116), and kidney cancer (Caki-1) cells were cultured in a 96-well plate for 24 hours under conditions of 37° C. and 5% CO2, treated with ADP-ribose or 2 or 5 Gy radiation alone or in combination with ADP-ribose and 2 Gy radiation, and cultured for 24 hours under conditions of 37° C. and 5% CO2 again. Then, 10 μl of 3-(4,5-dimethylthiazol-2-yl)-2,5-diphenyltetrazolium bromide reagent was added to each well and reacted for 1 hour. After the reaction was completed, the reagent was removed, 200 μl of dimethyl sulfoxide was added to each well, and the absorbance was measured to compare the degree of cell death.
3×10^3 MDA-MB-231 cells were cultured in a 96-well plate for 24 hours under conditions of 37° C. and 5% CO2, treated with 16 μM of ADP-ribose and 2 or 5 Gy dose of radiation individually or in combination, and cultured for 24 hours under conditions of 37° C. and 5% CO2 again. Then, 10 μl of 3-(4,5-dimethylthiazol-2-yl)-2,5-diphenyltetrazolium bromide reagent was added to each well and reacted for 1 hour. After the reaction was completed, the reagent was removed, 200 μl of dimethyl sulfoxide was added to each well, and the absorbance was measured to confirm cell viability.

[3] = tested on: MDA-MB-231 cells; experiment: Transwell metastasis and invasion ability of cancer cells; format: cell-based; conditions: MDA-MB-231, 32 μM ADP-ribose
Experimental: Metastasis and invasion ability of cancer cells were analyzed by using a transwell having polycarbonate membrane filters with 8.0 μm pore size. The transwell was put into a 24-well plate. In each well, pancreatic cancer (Aspc-1) and breast cancer (MDA-MB-231) cells were seeded on the upper surface of the insert at a density of 3.5×10^5 cells per well, divided into the untreated group and ADP-ribose-treated groups, and cultured under conditions of 37° C. and 5% CO2 for 24 hours. After culturing, the transwell was carefully washed with sterile water and then placed in 100% methanol to fix the attached cells. After fixation, the cells were stained with hematoxylin and an eosin reagent to observe the cells, and the ratio of cells that permeated the upper surface of the insert and metastasized and invaded the lower surface, compared to the untreated group, was obtained.
Analysis was performed using a transwell having polycarbonate membrane filters with 8.0 μm pore size. […] After culturing, the transwell was carefully washed with sterile water and then placed in 100% methanol to fix the attached cells. After fixation, the cells were stained with hematoxylin and an eosin reagent to observe the cells.

[4] = tested on: Hep G2 cells; experiment: ADP-ribose quantitative analysis (ELISA) in cancer cells; format: cell-based; conditions: 8 μM ADP-ribose, 24 hours, P<0.001
Experimental: After culturing, the culture medium was removed, the cells were washed with phosphate-buffered saline, and then RIPA buffer was added and the cells were left on ice for 20 minutes. After scraping the cells, the cells were put in a centrifuge tube and centrifuged for 10 minutes at 10,000 g and 4° C. The supernatant was obtained, and 1% SDS was added, and then the reaction product was boiled at 100° C. for 5 minutes and cooled on ice. The supernatant was centrifuged again at 10,000 g and 4° C. for 10 minutes to obtain the final supernatant, and ADP-ribose was quantitatively analyzed and compared using an ELISA analysis kit (Cell Biolabs, Inc., San Diego, CA, USA).
5×10^5 Hep G2 cells were divided into the untreated group and 8 μM ADP-ribose-treated group and cultured in Eagle's Minimum Essential Medium supplemented with 10% fetal calf serum+100 units/ml penicillin+100 μg/ml streptomycin under conditions of 37° C. and 5% CO2 for 24 hours. The medium of the cultured cells was removed, and the supernatant prepared by treatment with RIPA buffer and 1% sodium dodecyl sulfate (SDS) was used for ELISA analysis to detect and analyze ADP-ribose.

[5] = tested on: Pancreatic cancer (AsPC-1) cells; experiment: Xenograft model, combination with radiation, tumor volume; format: in vivo, BALB/c nude mice; conditions: AsPC-1 xenograft
Experimental: Brain cancer (U-87MG), pancreatic cancer (AsPC-1), breast cancer (MDA-MB-231), or kidney cancer (Caki-1) cells (1×10^7 cells) were inoculated into 5-week-old BALB/c nude mice on the back flank, respectively. Then, when tumors were grown to a volume of approximately 150 mm^3, the mice were divided into three groups: the control group (Control), 2 Gy dose of radiation alone, and a combination administration of 2 Gy dose of radiation+10 mg/kg of ADP-ribose (subcutaneous administration, 3 times a week). The irradiation was performed with an X-Rad 320 irradiator (Precision X-ray, North Branford, CT, USA), wherein the mice were placed by maintaining an appropriate distance from the radiation source for irradiation with a predetermined radiation dose. A lead shield was used to protect the body parts or organs from exposure to radiation, other than the cancerous part of the mouse. The irradiation was performed with a total of 2 Gy of radiation fractionated into two doses of 1 Gy each (for 2 days) at a dose rate of 300 kVp and 150 cGy/min using an X-ray beam filter composed of 12.5 mA and 2.0 mm Al. The tumor size was measured every 6 days using a digital caliper, and the results of changes in tumor volume were compared by the group.
Pancreatic cancer (AsPC-1) cells (1×10^7) were inoculated into 5-week-old BALB/c nude mice on the back flank, and the mice were divided into three groups: the control group (Control), 2 Gy dose of radiation alone, and combination administration of 2 Gy dose radiation+10 mg/kg of ADP-ribose. When the tumors were grown to a volume of approximately 150 mm^3, 2 Gy dose of radiation was irradiated twice at 1 Gy each, and 10 mg/kg of ADP-ribose was injected subcutaneously 3 times a week. The tumor size was measured using a digital caliper, and the results of changes in tumor volume were compared by the group.

[6] = tested on: Pancreatic cancer (AsPC-1) cells; conditions: AsPC-1 xenograft
Experimental: Brain (U-87MG), lung (H1975), pancreatic (AsPC-1), or liver (Hep G2) cells (1×10^7 cells) were inoculated into 5-week-old BALB/c nude mice on the back flank, respectively. Then, when tumors were grown to a volume of approximately 150 mm^3, the mice were divided into the control group (control), an anti-cancer drug alone treatment group, and a combination treatment group. […] The tumor size was measured every 6 days using a digital caliper, and the results of changes in tumor volume were compared by the group.
The tumor size was measured using a digital caliper, and the results of changes in tumor volume were compared by the group.

[7] = ADP-ribose 10 mg/kg s.c. + 2 Gy radiation, P<0.001
[8] = ADP-ribose 10 mg/kg s.c. in combination with gemcitabine 50 mg/kg, P<0.001

Nc1ncnc2c1ncn2[C@@H]1O[C@H](COP(=O)(O)OP(=O)(O)OC[C@H]2O[C@@H](O)C(O)C2O)C(O)C1O (stereo partly shown) [ADP-ribose, adenosine diphosphate ribose]
maximum lethal dose (concentration at which almost all cells were killed) ([1]; AsPC-1, 24 hours, MTT): 32 µM
cancer cell growth under a microscope ([1]; AsPC-1, ADP-ribose treated vs control, FIG. 4A): inhibited from growing and killed
IC50 ([1]; Homo sapiens, ASPC1, 24 h, read-out: half-lethal dose (concentration at which about half of the cells were killed)): ~2000 nM
survival rate of cancer cells [2]: about 11.3%
invasion and metastasis from upper to lower part of the transwell (photomicrograph) ([3]; 24 hours, FIG. 11A): significantly inhibited
metastasis and invasion ability, quantitatively measured, compared to the control group ([3]; P<0.001, FIG. 11B): significantly reduced
amount of ADP-ribose in cells compared to the control group [4]: remarkably increased significantly
reduction of tumor volume compared to the control group [5, 7]: about 69.1%
reduction of tumor volume compared to the group treated with 2 Gy dose of radiation alone [5, 7]: about 57.3%
final tumor volume ([5]; ADP-ribose 10 mg/kg subcutaneous 3 times a week + 2 Gy radiation, control about 2384.3, 2 Gy alone about 1725.5): about 736.2 mm^3
reduction of tumor volume compared to the control group [6, 8]: about 80%
reduction of tumor volume compared to the group treated with gemcitabine alone [6, 8]: about 76%
final tumor volume ([6]; ADP-ribose 10 mg/kg subcutaneous 3 times a week in combination with gemcitabine 50 mg/kg, control about 2174.3): about 444.3 mm^3
